{
  "source": "paper PMC8491460",
  "about": "(Pharmacology Research & Perspectives, 2021)",
  "origin": "cited, not measured here",
  "key": {"[1]": {"test_system": "patients with metastatic melanoma"}, "[2]": {"test_system": "NK cells"}, "[3]": {"test_system": "patients with moderate to severe atopic dermatitis", "conditions": "30 mg administered orally for 8 weeks"}, "[4]": {"test_system": "Colorectal cancer patients", "conditions": "8.8 or 1.2 g per day oral, admission to 10th postoperative day"}, "[5]": {"test_system": "patients with advanced RCC", "conditions": "IFNα 3–6 MIU s.c. thrice/week, 800 mg cimetidine, 10 mg meloxicam, 4 mg candesartan or perindopril"}, "[6]": {"test_system": "BN‐175 tumors", "conditions": "40 µg melphalan, 1 mg histamine, and 50 µg IL‐2 in 5 ml perfusate"}, "[7]": {"test_system": "MC‐38 colon carcinoma"}, "[8]": {"test_system": "murine EL4 lymphomas", "conditions": "75 mg/kg i.p. three times a week for 2 weeks"}, "[9]": {"test_system": "human 1205Lu melanoma tumor", "conditions": "1 mg/kg daily s.c. for 30 days"}, "[10]": {"test_system": "EL4 lymphoma"}, "[11]": {"test_system": "CD11b^+Gr1^+ immature myeloid cells", "conditions": "0.8 mg/kg i.p. per day for 20 days"}, "[12]": {"conditions": "clinical trials, adjuvant to IL‐2 immunotherapy"}, "[13]": {"test_system": "patients with metastatic RCC"}, "[14]": {"test_system": "patients with high‐grade non‐Hodgkin lymphoma", "conditions": "3 MIU IFNα, 1.5 mg/kg IL‐2, and 0.5 mg histamine s.c. 1–2 times daily, 5 days a week"}, "[15]": {"test_system": "breast cancer models E0771 and 4T1", "conditions": "8 mg/kg in drinking water; E0771 and 4T1, respectively"}, "[16]": {"test_system": "uncontrolled, eosinophilic asthma", "conditions": "30 mg per day for 24 weeks"}, "[17]": {"test_system": "rheumatoid arthritis", "conditions": "100 mg once daily orally for 12 weeks, phase IIa"}, "[18]": {"test_system": "rheumatoid arthritis", "conditions": "phase IIb trial"}, "[19]": {"test_system": "patients with moderate‐to‐severe psoriasis", "conditions": "30 and 60 mg per day"}, "[20]": {"conditions": "histamine 75 µg/mouse i.p., 100–240 µg/mouse of each antibody"}, "[21]": {"conditions": "histamine and anti‐PD‐1/anti‐PD‐L1"}, "[22]": {"conditions": "histamine 1500 µg/mouse with anti‐PD‐1/anti‐PD‐L1"}},
  "note": "Where a name gives a salt, the structure may show the parent alone.",
  "data": [
    {"molecule": "CN(C)/N=N/c1[nH]cnc1C(N)=O", "note": "[Dacarbazine]", "values": [
      {"measurement": "overall response rates", "setting": "[1]", "result": 16, "unit": "%"}
    ]},
    {"molecule": "NCCc1c[nH]cn1", "note": "[HDC, histamine dihydrochloride]", "values": [
      {"measurement": "ROS production by M4/M5 cells and apoptosis in adjacent NK cells", "setting": "[2]", "result": "inhibited"}
    ]},
    {"molecule": "CN[C@@H]1CCN(c2cc(NCC3CC3)nc(N)n2)C1", "note": "[adriforant]", "values": [
      {"measurement": "eczema and severity", "setting": "[3]", "result": "improved eczema and severity"},
      {"measurement": "tolerability", "setting": "[3]", "result": "well tolerated"}
    ]},
    {"molecule": "CN/C(=N/CCSCc1nc[nH]c1C)NC#N", "note": "[cimetidine]", "values": [
      {"measurement": "CD19^+ B cells in blood samples", "setting": "[4]", "result": "elevated levels"},
      {"measurement": "responses", "setting": "[5]", "result": "favorable responses"}
    ]},
    {"molecule": "NCCc1c[nH]cn1", "note": "[histamine, 2‐(4‐imidazolyl)‐ethylamine]", "values": [
      {"measurement": "response", "setting": "[6]", "result": "no improved response"},
      {"measurement": "anti‐tumor efficacy of immune checkpoint blockade with anti‐PD‐1/anti‐PD‐L1", "setting": "[7]; [20]", "result": "improved"},
      {"measurement": "MC‐38 tumor growth", "setting": "[7]; histamine 1500 µg/mouse i.p. 3 times a week and anti‐PD‐1/anti‐PD‐L1", "result": "strongly reduced"},
      {"measurement": "fraction of CD8^+ T cells with an effector phenotype", "setting": "[7]; [21]", "result": "raised significantly"},
      {"measurement": "fraction of intra‐tumoral CD8^+ T cells", "setting": "[7]; [21]", "result": "tending to increase"},
      {"measurement": "intra‐tumoral NK cells", "setting": "[7]; [21]", "result": "decreased"},
      {"measurement": "percentage of intra‐tumoral CD4^+ T cells", "setting": "[7]; [21]", "result": "not altered"},
      {"measurement": "tumor‐infiltrating DCs", "setting": "[8]; WT mice", "result": "increased"},
      {"measurement": "growth of murine EL4 lymphomas", "setting": "[8]; WT mice but not NOX2‐deficient mice", "result": "reduced"},
      {"measurement": "neutrophil‐to‐lymphocyte ratio infiltrate", "setting": "[9]", "result": "decreased"},
      {"measurement": "tumor growth and neovascular formation", "setting": "[9]", "result": "reduced"},
      {"measurement": "accumulation and immunosuppressive features of MDSCs", "setting": "[10]; 75 µg/mouse i.p. three times a week", "result": "diminished"},
      {"measurement": "tumor growth", "setting": "[10]; 75 µg/mouse i.p. three times a week starting 1 day before tumor inoculation", "result": "diminished tumor growth"},
      {"measurement": "expression of PD‐L1 on MDSCs or PD‐1 on CD8^+ T cells", "setting": "[10]; EL4 tumor‐bearing mice, histamine", "result": "did not alter"},
      {"measurement": "anti‐tumor efficacy of immune checkpoint blockade with anti‐PD‐1/anti‐PD‐L1", "setting": "[10]; [20]", "result": "improved"},
      {"measurement": "fraction of CD8^+ T cells displaying an effector phenotype", "setting": "[10]; [22]", "result": "slightly increased"},
      {"measurement": "intra‐tumoral proportion of MDSCs, or T and NK cells", "setting": "[10]; [22]", "result": "did not affect"},
      {"measurement": "ability of immature myeloid cells to support the growth of tumor allografts", "setting": "[11]", "result": "suppressed"},
      {"measurement": "differentiation of CD11b^+Gr1^+ immature myeloid cells", "setting": "[11]; through H1 receptor and H2 receptor", "result": "induced their terminal differentiation into monocytes and neutrophils"},
      {"measurement": "tolerability", "setting": "[12]", "result": "generally well tolerated"},
      {"measurement": "tolerability", "setting": "[13]; 1 mg HDC s.c. b.i.d. with IFNα 3 MIU and IL‐2 2.4 MIU/m^2", "result": "well tolerated"},
      {"measurement": "TILs, blood leukocyte count, f‐chain expression, or cytotoxicity", "setting": "[13]; similar treatment scheme", "result": "did not influence"},
      {"measurement": "frequency of cytokine‐producing T cells and NK‐cell‐mediated cytotoxicity", "setting": "[14]", "result": "significant increases"}
    ]},
    {"molecule": "CNC(=C[N+](=O)[O-])NCCSCc1ccc(CN(C)C)o1", "note": "[ranitidine]", "values": [
      {"measurement": "primary tumor growth and metastasis", "setting": "[15]", "result": "consistently reduced"}
    ]},
    {"molecule": "Cc1cc(C)c2nc(-c3cnc(NCCCC4CCN(C)CC4)nc3C)[nH]c2c1", "note": "[toreforant]", "values": [
      {"measurement": "improvement of uncontrolled, eosinophilic asthma", "setting": "[16]", "result": "failed to improve"},
      {"measurement": "signs and symptoms of rheumatoid arthritis", "setting": "[17]", "result": "reduced"},
      {"measurement": "confirmation of the reduction of signs and symptoms", "setting": "[18]", "result": "could not be confirmed"},
      {"measurement": "response versus placebo", "setting": "[19]", "result": "greater response than placebo"}
    ]},
    {"molecule": "IL‐2: interleukin‐2 immunotherapeutic cytokine", "values": [
      {"measurement": "overall response rates", "setting": "[1]", "result": 16, "unit": "%"}
    ]}
  ]
}
